Measured values reported in patent publication US20250000843A1, “LIGNAN-INSPIRED COMPOUNDS, METHODS OF MAKING, AND USING THEREOF” (IOWAIBO, INC., priority 2023, published 2025).

Assays:
[1] = tested on: PC3, a human prostate cancer cell line; test: MTT toxicity assay in PC3 prostate cancer cells; assay type: cell-based
Description: Toxicity of the dibenzyl butyl lactone derivative (3-[(3,4-dimethoxyphenyl)cyclopentyl], 4-[(3-hydroxyphenol)methyl]oxolan-2-one) in breast cancer cells was evaluated using MTT assay. The MTT toxicity test is a colorimetric assay to measure cells' metabolic activity by serving as a substrate of cellular enzymes that reduce the tetrazolium orange dye, MTT (3-(4,5-Dimethylthiazol-2-yl)-2,5-diphenyltetrazolium bromide) to its insoluble, formazan, giving a purple color. The rate of conversion is directly proportional to cells' mitochondrial metabolic activity via NAD (P) H-dependent cellular oxidoreductase enzymes and serves as a surrogate marker of cell viability.
Cells previously expanded were seeded in 96 well plates at 1.9×10^5 and 9.6×10^4 cells/plate for 24- and 72-hours treatment respectively. This concentration is known to show the best window for the MTT assay, with better sensitivity and low variability.
5 mg of powdered enterolactone, dibenzyl butyl lactone derivative enantiomer A, and dibenzyl butyl lactone derivative enantiomer B were dissolved in 500 μl of DMSO at room temperature. Eight-point curves, ⅓ dilutions (highest concentration 125 μM), were prepared.
Twenty-four hours following the seeding process, the cells were washed once with phosphate buffered saline (PBS) and treated with the respective compounds in cell culture media. Each condition was tested in triplicates. For positive and negative controls, 8 mM methyl methane sulfonate (MMS) and DMSO 100% were used respectively.
Following compound addition, the plates were incubated for 24 and 72 hours. After the treatment period, cells were washed twice with PBS and media was replaced with MTT reagent at 0.5 mg/ml in Dulbecco's modified Eagle medium (DMEM) without phenol red. The plates were gently shaken and incubated for 4 hours. After the incubation the medium was removed and replaced by DMSO. The plates were gently shaken to solubilize the formazan crystals. Absorbance was measured using an Envision multiplate reader at a wavelength of 570 nm.
Toxicity of the dibenzyl butyl lactone derivative (3-[(3,4-dimethoxyphenyl)cyclopentyl], 4-[(3-hydroxyphenol)methyl]oxolan-2-one) in prostate cancer cells was evaluated using MTT assay. The same methods as those used in Example 2 were employed, except the cell line used was PC3, a human prostate cancer cell line, and cell cultures were established in Kaighn's modification of Ham's […] medium.
MTT assay results are shown in Tables 16-21 and expressed as the percentage of cell death after treatment.

[2] = target: telomerase (Homo sapiens, UniProt O14746); test: Q-TRAP telomerase activity in MCF7 breast cancer cells; assay type: cell-based; set-up: allow the enzymatic addition of telomeric DNA repeats by endogenous telomerase; endogenous in cells
Chain of telomerase (O14746 whole entry): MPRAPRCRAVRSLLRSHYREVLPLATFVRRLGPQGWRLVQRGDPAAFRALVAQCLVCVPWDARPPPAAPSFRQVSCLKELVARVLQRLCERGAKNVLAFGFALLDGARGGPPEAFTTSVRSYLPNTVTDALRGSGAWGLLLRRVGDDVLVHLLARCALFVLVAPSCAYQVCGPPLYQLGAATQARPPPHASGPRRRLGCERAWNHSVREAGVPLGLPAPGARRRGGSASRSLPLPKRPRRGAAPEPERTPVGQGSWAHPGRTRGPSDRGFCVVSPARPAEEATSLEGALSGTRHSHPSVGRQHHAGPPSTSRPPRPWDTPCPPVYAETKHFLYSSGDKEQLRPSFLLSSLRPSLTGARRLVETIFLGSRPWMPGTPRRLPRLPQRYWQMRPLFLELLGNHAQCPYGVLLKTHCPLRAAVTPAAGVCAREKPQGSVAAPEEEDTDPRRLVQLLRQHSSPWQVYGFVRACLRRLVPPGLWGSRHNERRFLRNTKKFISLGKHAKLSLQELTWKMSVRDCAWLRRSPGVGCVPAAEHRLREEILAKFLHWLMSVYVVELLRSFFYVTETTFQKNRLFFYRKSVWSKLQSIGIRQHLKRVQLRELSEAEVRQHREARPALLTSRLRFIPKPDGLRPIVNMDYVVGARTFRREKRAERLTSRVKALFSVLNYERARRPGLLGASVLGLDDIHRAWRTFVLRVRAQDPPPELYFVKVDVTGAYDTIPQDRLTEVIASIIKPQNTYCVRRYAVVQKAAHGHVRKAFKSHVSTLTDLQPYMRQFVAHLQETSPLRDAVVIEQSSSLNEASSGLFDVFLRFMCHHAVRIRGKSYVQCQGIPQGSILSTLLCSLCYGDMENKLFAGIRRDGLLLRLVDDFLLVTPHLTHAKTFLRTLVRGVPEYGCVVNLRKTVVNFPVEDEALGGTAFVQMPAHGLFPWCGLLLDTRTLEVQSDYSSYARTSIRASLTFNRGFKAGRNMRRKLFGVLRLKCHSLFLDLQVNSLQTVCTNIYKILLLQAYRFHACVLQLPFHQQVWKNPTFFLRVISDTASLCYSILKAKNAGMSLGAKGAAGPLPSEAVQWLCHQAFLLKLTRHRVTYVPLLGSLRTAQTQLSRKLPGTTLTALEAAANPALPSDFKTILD
Chain of telomerase (O60832 whole entry partner): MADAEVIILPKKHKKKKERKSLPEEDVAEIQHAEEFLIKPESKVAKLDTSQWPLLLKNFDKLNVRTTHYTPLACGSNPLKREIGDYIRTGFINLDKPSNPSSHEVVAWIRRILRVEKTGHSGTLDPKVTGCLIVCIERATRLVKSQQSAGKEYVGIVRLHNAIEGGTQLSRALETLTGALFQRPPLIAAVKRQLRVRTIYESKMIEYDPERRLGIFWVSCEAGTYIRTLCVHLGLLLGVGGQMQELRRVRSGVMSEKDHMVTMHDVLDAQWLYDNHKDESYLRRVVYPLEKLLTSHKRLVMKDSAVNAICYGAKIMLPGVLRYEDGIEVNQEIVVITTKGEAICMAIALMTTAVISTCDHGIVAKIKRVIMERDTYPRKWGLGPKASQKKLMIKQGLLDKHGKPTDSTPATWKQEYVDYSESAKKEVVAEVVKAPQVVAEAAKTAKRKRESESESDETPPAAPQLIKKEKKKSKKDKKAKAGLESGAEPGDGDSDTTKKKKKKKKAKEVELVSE
Chain of telomerase (Q9NPE3 whole entry partner): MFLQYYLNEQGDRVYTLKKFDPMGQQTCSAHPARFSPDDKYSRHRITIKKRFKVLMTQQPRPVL
Chain of telomerase (Q9NX24 whole entry partner): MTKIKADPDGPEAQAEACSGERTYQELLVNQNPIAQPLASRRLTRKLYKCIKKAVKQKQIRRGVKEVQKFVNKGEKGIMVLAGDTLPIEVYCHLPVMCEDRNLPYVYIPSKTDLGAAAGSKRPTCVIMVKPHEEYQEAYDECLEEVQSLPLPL
Chain of telomerase (Q9NY12 whole entry partner): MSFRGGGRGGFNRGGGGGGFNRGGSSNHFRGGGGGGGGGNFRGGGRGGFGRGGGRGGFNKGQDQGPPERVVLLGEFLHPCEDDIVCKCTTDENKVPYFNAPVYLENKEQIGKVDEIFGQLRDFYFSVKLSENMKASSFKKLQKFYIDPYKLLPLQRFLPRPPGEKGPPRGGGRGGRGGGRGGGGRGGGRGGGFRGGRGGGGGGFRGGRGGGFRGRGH
Chain of telomerase (Q9BUR4 whole entry partner): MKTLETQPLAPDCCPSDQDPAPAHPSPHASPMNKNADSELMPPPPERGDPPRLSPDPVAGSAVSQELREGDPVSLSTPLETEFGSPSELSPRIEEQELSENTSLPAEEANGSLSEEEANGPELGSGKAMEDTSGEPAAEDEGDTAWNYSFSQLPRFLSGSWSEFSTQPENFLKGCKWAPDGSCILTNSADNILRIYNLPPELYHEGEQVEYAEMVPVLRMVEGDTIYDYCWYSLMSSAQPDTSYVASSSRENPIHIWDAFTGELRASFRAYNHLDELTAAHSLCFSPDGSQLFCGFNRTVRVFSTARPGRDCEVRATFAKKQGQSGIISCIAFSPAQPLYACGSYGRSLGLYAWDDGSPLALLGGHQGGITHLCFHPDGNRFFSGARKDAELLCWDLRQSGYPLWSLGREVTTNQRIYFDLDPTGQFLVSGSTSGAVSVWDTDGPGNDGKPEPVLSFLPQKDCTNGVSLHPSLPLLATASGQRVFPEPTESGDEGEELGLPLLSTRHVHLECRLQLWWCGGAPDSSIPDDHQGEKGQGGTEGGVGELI

With `O=C1OCC(Cc2ccc3c(c2)OCO3)/C1=C\c1cccc(O)c1` (single isomer, unassigned) [Enantiomer B, 3-[(3,4-dimethoxyphenyl)cyclopentyl], 4-[(3-hydroxyphenol)methyl]oxolan-2-one] the “Cell death #1 (%)” value ([1]; PC3, 24 hours, 0.06 μM) was −14.60%, the “Cell death #2 (%)” value ([1]; PC3, 24 hours, 0.06 μM) was −12.15% and the “Cell death #3 (%)” value ([1]; PC3, 24 hours, 0.06 μM) was −1.24%. For the same compound, the “Cell death (%) MEAN” value ([1]; PC3, 24 hours, 0.06 μM) was −9.33%, the “Cell death #1 (%)” value ([1]; PC3, 24 hours, 0.17 μM) was −22.81% and the “Cell death #2 (%)” value ([1]; PC3, 24 hours, 0.17 μM) was −20.24%. For the same compound, the “Cell death #3 (%)” value ([1]; PC3, 24 hours, 0.17 μM) was −14.35%, the “Cell death (%) MEAN” value ([1]; PC3, 24 hours, 0.17 μM) was −19.13% and the “Cell death #1 (%)” value ([1]; PC3, 24 hours, 0.51 μM) was −15.09%. The “Cell death #2 (%)” value ([1]; PC3, 24 hours, 0.51 μM) was −34.33%, the “Cell death #3 (%)” value ([1]; PC3, 24 hours, 0.51 μM) was −34.94% and the “Cell death (%) MEAN” value ([1]; PC3, 24 hours, 0.51 μM) was −28.12%. The “Cell death #1 (%)” value ([1]; PC3, 24 hours, 1.54 μM) was −58.35%, the “Cell death #2 (%)” value ([1]; PC3, 24 hours, 1.54 μM) was −51.85% and the “Cell death #3 (%)” value ([1]; PC3, 24 hours, 1.54 μM) was −43.77%. For the same compound, the “Cell death (%) MEAN” value ([1]; PC3, 24 hours, 1.54 μM) was −51.32%, the “Cell death #1 (%)” value ([1]; PC3, 24 hours, 4.63 μM) was −72.93% and the “Cell death #2 (%)” value ([1]; PC3, 24 hours, 4.63 μM) was −63.74%. For the same compound, the “Cell death #3 (%)” value ([1]; PC3, 24 hours, 4.63 μM) was −39.60%, the “Cell death (%) MEAN” value ([1]; PC3, 24 hours, 4.63 μM) was −58.76% and the “Cell death #1 (%)” value ([1]; PC3, 24 hours, 13.89 μM) was −71.22%. The “Cell death #2 (%)” value ([1]; PC3, 24 hours, 13.89 μM) was −63.50%, the “Cell death #3 (%)” value ([1]; PC3, 24 hours, 13.89 μM) was −63.74% and the “Cell death (%) MEAN” value ([1]; PC3, 24 hours, 13.89 μM) was −66.15%. For the same compound, the “Cell death #1 (%)” value ([1]; PC3, 24 hours, 41.67 μM) was −68.77%, the “Cell death #2 (%)” value ([1]; PC3, 24 hours, 41.67 μM) was −35.80% and the “Cell death #3 (%)” value ([1]; PC3, 24 hours, 41.67 μM) was −33.35%. The “Cell death (%) MEAN” value ([1]; PC3, 24 hours, 41.67 μM) was −45.97%, the “Cell death #1 (%)” value ([1]; PC3, 24 hours, 125.00 μM) was 6.23% and the “Cell death #2 (%)” value ([1]; PC3, 24 hours, 125.00 μM) was 3.54%. The “Cell death #3 (%)” value ([1]; PC3, 24 hours, 125.00 μM) was 4.64%, the “Cell death (%) MEAN” value ([1]; PC3, 24 hours, 125.00 μM) was 4.80% and the “Cell death #1 (%)” value ([1]; PC3, 72 hours, 0.06 μM) was −22.56%. The “Cell death #2 (%)” value ([1]; PC3, 72 hours, 0.06 μM) was −30.41%, the “Cell death #3 (%)” value ([1]; PC3, 72 hours, 0.06 μM) was −23.49% and the “Cell death (%) MEAN” value ([1]; PC3, 72 hours, 0.06 μM) was −25.49%. The “Cell death #1 (%)” value ([1]; PC3, 72 hours, 0.17 μM) was −33.20%, the “Cell death #2 (%)” value ([1]; PC3, 72 hours, 0.17 μM) was −39.41% and the “Cell death #3 (%)” value ([1]; PC3, 72 hours, 0.17 μM) was −29.79%. For the same compound, the “Cell death (%) MEAN” value ([1]; PC3, 72 hours, 0.17 μM) was −34.13%, the “Cell death #1 (%)” value ([1]; PC3, 72 hours, 0.51 μM) was −47.57% and the “Cell death #2 (%)” value ([1]; PC3, 72 hours, 0.51 μM) was −52.84%. For the same compound, the “Cell death #3 (%)” value ([1]; PC3, 72 hours, 0.51 μM) was −52.74%, the “Cell death (%) MEAN” value ([1]; PC3, 72 hours, 0.51 μM) was −51.05% and the “Cell death #1 (%)” value ([1]; PC3, 72 hours, 1.54 μM) was −52.64%. For the same compound, the “Cell death #2 (%)” value ([1]; PC3, 72 hours, 1.54 μM) was −40.34%, the “Cell death #3 (%)” value ([1]; PC3, 72 hours, 1.54 μM) was −51.19% and the “Cell death (%) MEAN” value ([1]; PC3, 72 hours, 1.54 μM) was −48.05%. For the same compound, the “Cell death #1 (%)” value ([1]; PC3, 72 hours, 4.63 μM) was −45.81%, the “Cell death #2 (%)” value ([1]; PC3, 72 hours, 4.63 μM) was −40.03% and the “Cell death #3 (%)” value ([1]; PC3, 72 hours, 4.63 μM) was −52.74%. The “Cell death (%) MEAN” value ([1]; PC3, 72 hours, 4.63 μM) was −46.19%, the “Cell death #1 (%)” value ([1]; PC3, 72 hours, 13.89 μM) was −33.31% and the “Cell death #2 (%)” value ([1]; PC3, 72 hours, 13.89 μM) was −22.56%. The “Cell death #3 (%)” value ([1]; PC3, 72 hours, 13.89 μM) was −34.75%, the “Cell death (%) MEAN” value ([1]; PC3, 72 hours, 13.89 μM) was −30.21% and the “Cell death #1 (%)” value ([1]; PC3, 72 hours, 41.67 μM) was 11.03%. The “Cell death #2 (%)” value ([1]; PC3, 72 hours, 41.67 μM) was 11.96%, the “Cell death #3 (%)” value ([1]; PC3, 72 hours, 41.67 μM) was 14.65% and the “Cell death (%) MEAN” value ([1]; PC3, 72 hours, 41.67 μM) was 12.55%. For the same compound, the “Cell death #1 (%)” value ([1]; PC3, 72 hours, 125.00 μM) was 64.88%, the “Cell death #2 (%)” value ([1]; PC3, 72 hours, 125.00 μM) was 61.78% and the “Cell death #3 (%)” value ([1]; PC3, 72 hours, 125.00 μM) was 57.24%. The “Cell death (%) MEAN” value ([1]; PC3, 72 hours, 125.00 μM) was 61.30%, the “prostate cancer cell death as compared to enterolactone” value ([1]; PC3, at higher concentrations, 24 hours and 72 hours post-treatment) was “increased prostate cancer cell death as compared to enterolactone” and the “Telomerase Activity RTA (%)” value ([2]; MCF7, 2.5 μM, 24 Hours) was 47.79%. The “Telomerase Activity RTA (%)” value ([2]; MCF7, 2.5 μM, 48 Hours) was 23.71%, the “Telomerase Activity RTA (%)” value ([2]; MCF7, 2.5 μM, 72 Hours) was 15.49% and the “Telomerase Activity RTA (%)” value ([2]; MCF7, 5 μM, 24 Hours) was 48.30%. The “Telomerase Activity RTA (%)” value ([2]; MCF7, 5 μM, 48 Hours) was 31.70%, the “Telomerase Activity RTA (%)” value ([2]; MCF7, 5 μM, 72 Hours) was 14.68% and the “Telomerase Activity RTA (%)” value ([2]; MCF7, 10 μM, 24 Hours) was 59.90%. For the same compound, the “Telomerase Activity RTA (%)” value ([2]; MCF7, 10 μM, 48 Hours) was 32.76%, the “Telomerase Activity RTA (%)” value ([2]; MCF7, 10 μM, 72 Hours) was 16.26% and the “Telomerase Activity RTA (%)” value ([2]; MCF7, 20 μM, 24 Hours) was 44.48%. For the same compound, the “Telomerase Activity RTA (%)” value ([2]; MCF7, 20 μM, 48 Hours) was 44.82%, the “Telomerase Activity RTA (%)” value ([2]; MCF7, 20 μM, 72 Hours) was 16.69% and the “Telomerase Activity RTA (%)” value ([2]; MCF7, 40 μM, 24 Hours) was 53.63%. For the same compound, the “Telomerase Activity RTA (%)” value ([2]; MCF7, 40 μM, 48 Hours) was 26.82%, the “Telomerase Activity RTA (%)” value ([2]; MCF7, 40 μM, 72 Hours) was 10.17% and the IC50 ([2]; MCF7, 24 h) was greater than 40 µM. The “telomerase activity levels of treated groups compared to control” value ([2]; MCF7, 24 hours) was “lower telomerase activity levels compared to control”, the “Significance of RTA difference vs. control” value ([2]; MCF7, 24 hours, 5 μM) was “YES (*)” and the “Significance of RTA difference vs. control” value ([2]; MCF7, 24 hours, 10 μM) was “YES (*)”. For the same compound, the “Significance of RTA difference vs. control” value ([2]; MCF7, 24 hours, 20 μM) was “YES (*)”, the “Significance of RTA difference vs. control” value ([2]; MCF7, 24 hours, 40 μM) was “YES (*)” and the IC50 ([2]; MCF7, 48 h) was 5.17 µM. The “telomerase activity levels of treated groups compared to control” value ([2]; MCF7, 48 hours) was “lower telomerase activity levels compared to control, even more pronounced than 24 hours”, the “Significance of RTA difference vs. control” value ([2]; MCF7, 48 hours, 2.5 μM) was “YES (*)” and the “Significance of RTA difference vs. control” value ([2]; MCF7, 48 hours, 10 μM) was “YES (*)”. For the same compound, the “Significance of RTA difference vs. control” value ([2]; MCF7, 48 hours, 40 μM) was “YES (*)”, the IC50 ([2]; MCF7, 72 h) was greater than 40 µM and the “telomerase activity levels of treated groups compared to control” value ([2]; MCF7, 72 hours) was “the group treated with the highest concentration presented lower RTA levels”. For the same compound, the “Significance of RTA difference vs. control” value ([2]; MCF7, 72 hours, 2.5 μM) was “YES (*)” and the telomerase inhibition effect ([2]; MCF7 breast cancer cells) was “exhibit a telomerase inhibition effect”.
